In PubChem BioAssay (NCI):
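Cultured in 96-well plates, cells were exposed to test compound for 48 hours across five concentrations. TGI: concentration producing complete growth inhibition.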

Assays:
Experiment in all cases: inhibition of tumour cell growth, NCI panel, 48 h
[1] = system: HCT-15 colon
[2] = system: HOP-92 NSCLC
[3] = system: RXF-631 renal
[4] = system: COLO 205 colon
[5] = system: SK-MEL-5 melanoma
[6] = system: NCI-H226 lung
[7] = system: CAKI-1 renal
[8] = system: SN12C renal
[9] = system: SW-620 colon
[10] = system: SF-268 CNS
[11] = system: EKVX NSCLC
[12] = system: MOLT-4 leukemia
[13] = system: HOP-62 NSCLC
[14] = system: SNB-19 CNS
[15] = system: IGROV1 ovarian
[16] = system: NCI-H460 lung
[17] = system: OVCAR-5 ovarian
[18] = system: CCRF-CEM leukemia
[19] = system: U251 CNS
[20] = system: SF-539 CNS
[21] = system: HCT-116 colon
[22] = system: A549 NSCLC
[23] = system: 786-0 renal
[24] = system: XF 498 CNS
[25] = system: OVCAR-3 ovarian
[26] = system: NCI-H23 lung
[27] = system: UACC-62 melanoma
[28] = system: HL-60(TB) leukemia
[29] = system: RXF 393 renal
[30] = system: ACHN renal
[31] = system: SNB-75 CNS
[32] = system: UO-31 renal
[33] = system: NCI-H522 lung
[34] = system: DLD-1 colon
[35] = system: SF-295 CNS
[36] = system: MALME-3M melanoma
[37] = system: DMS 114 small cell lung
[38] = system: LOX IMVI melanoma
[39] = system: K-562 leukemia
[40] = system: A498 renal
[41] = system: TK-10 renal
[42] = system: SR leukemia
[43] = system: SK-OV-3 ovarian
[44] = system: M14 melanoma
[45] = system: M19-MEL melanoma
[46] = system: OVCAR-8 ovarian
[47] = system: SNB-78 CNS
[48] = system: LXFL 529 NSCLC
[49] = system: HT29 colon
[50] = system: DMS 273 small cell lung
[51] = system: OVCAR-4 ovarian
[52] = system: SK-MEL-2 melanoma
[53] = system: UACC-257 melanoma
[54] = system: RPMI-8226 leukemia
[55] = system: HOP-18 NSCLC
[56] = system: SK-MEL-28 melanoma
[57] = system: KM12 colon
[58] = system: KM20L2 colon
[59] = system: HCC-2998 colon

`O=C(O)CC(O)(c1ccccc1C(=O)O)c1cccc2ccccc12` (stereo not drawn) gave a TGI [1] of over 100 µM, a TGI [2] of over 100 µM and a TGI [3] of over 100 µM. It also gave a TGI [4] of over 100 µM, a TGI [5] of over 100 µM and a TGI [6] of over 100 µM. It also gave a TGI [7] of over 100 µM, a TGI [8] of over 100 µM and a TGI [9] of over 100 µM. It also gave a TGI [10] of over 100 µM, a TGI [11] of over 100 µM and a TGI [12] of over 100 µM. It also gave a TGI [13] of over 100 µM, a TGI [14] of over 100 µM and a TGI [15] of over 100 µM. The TGI [16] was over 100 µM, the TGI [17] was over 100 µM and the TGI [18] was over 100 µM. For the same compound, the TGI [19] was over 100 µM, the TGI [20] was over 100 µM and the TGI [21] was over 100 µM. The TGI [22] was over 100 µM, the TGI [23] was over 100 µM and the TGI [24] was over 100 µM. For the same compound, the TGI [25] was over 100 µM, the TGI [26] was over 100 µM and the TGI [27] was over 100 µM. For the same compound, the TGI [28] was over 100 µM, the TGI [29] was over 100 µM and the TGI [30] was over 100 µM. The TGI [31] was over 100 µM, the TGI [32] was over 100 µM and the TGI [33] was over 100 µM. For the same compound, the TGI [34] was over 100 µM, the TGI [35] was over 100 µM and the TGI [36] was over 100 µM. For the same compound, the TGI [37] was over 100 µM, the TGI [38] was over 100 µM and the TGI [39] was over 100 µM. The TGI [40] was over 100 µM, the TGI [41] was over 100 µM and the TGI [42] was over 100 µM. For the same compound, the TGI [43] was over 100 µM, the TGI [44] was over 100 µM and the TGI [45] was over 100 µM. For the same compound, the TGI [46] was over 100 µM, the TGI [47] was over 100 µM and the TGI [48] was over 100 µM. The TGI [49] was over 100 µM, the TGI [50] was over 100 µM and the TGI [51] was over 100 µM. For the same compound, the TGI [52] was over 100 µM, the TGI [53] was over 100 µM and the TGI [54] was over 100 µM. For the same compound, the TGI [55] was over 100 µM, the TGI [56] was over 100 µM and the TGI [57] was over 100 µM.

`COc1ccc(=[O+]C)c2nssc1-2` was tested, and the TGI [3] was over 100 µM, the TGI [4] was over 100 µM and the TGI [5] was 35.8 µM. For the same compound, the TGI [6] was over 100 µM, the TGI [7] was over 100 µM and the TGI [8] was over 100 µM. For the same compound, the TGI [9] was over 100 µM, the TGI [10] was over 100 µM and the TGI [11] was over 100 µM. For the same compound, the TGI [12] was over 100 µM, the TGI [13] was over 100 µM and the TGI [14] was over 100 µM. The TGI [15] was over 100 µM, the TGI [16] was over 100 µM and the TGI [17] was over 100 µM. The TGI [18] was over 100 µM, the TGI [19] was 79.6 µM and the TGI [20] was 48.7 µM. The TGI [21] was over 100 µM, the TGI [22] was over 100 µM and the TGI [23] was over 100 µM. For the same compound, the TGI [24] was over 100 µM, the TGI [25] was over 100 µM and the TGI [26] was over 100 µM. For the same compound, the TGI [27] was 67.7 µM, the TGI [58] was over 100 µM and the TGI [28] was over 100 µM. The TGI [29] was over 100 µM, the TGI [30] was over 100 µM and the TGI [31] was over 100 µM. For the same compound, the TGI [32] was over 100 µM, the TGI [33] was over 100 µM and the TGI [34] was over 100 µM. The TGI [35] was over 100 µM, the TGI [36] was over 100 µM and the TGI [38] was over 100 µM. It also gave a TGI [39] of over 100 µM, a TGI [40] of over 100 µM and a TGI [41] of over 100 µM. For the same compound, the TGI [42] was over 100 µM, the TGI [43] was over 100 µM and the TGI [44] was over 100 µM. The TGI [45] was 40.2 µM, the TGI [46] was over 100 µM and the TGI [47] was over 100 µM. It also gave a TGI [48] of over 100 µM, a TGI [49] of over 100 µM and a TGI [50] of over 100 µM. For the same compound, the TGI [51] was over 100 µM, the TGI [52] was over 100 µM and the TGI [59] was over 100 µM. For the same compound, the TGI [53] was 71.5 µM, the TGI [56] was over 100 µM and the TGI [57] was over 100 µM.

`COc1ccc2c(c1)[n+]([O-])c(-c1c(Cl)cccc1Cl)c(N)[n+]2[O-]` was tested, and the TGI [1] was over 100 µM, the TGI [2] was over 100 µM and the TGI [3] was 60.1 µM. For the same compound, the TGI [4] was 71.6 µM, the TGI [5] was 42.9 µM and the TGI [6] was over 100 µM. The TGI [7] was over 100 µM, the TGI [8] was over 100 µM and the TGI [9] was over 100 µM. The TGI [10] was over 100 µM, the TGI [11] was over 100 µM and the TGI [12] was over 100 µM. For the same compound, the TGI [14] was over 100 µM, the TGI [15] was over 100 µM and the TGI [16] was over 100 µM. The TGI [17] was over 100 µM, the TGI [18] was over 100 µM and the TGI [19] was over 100 µM. The TGI [22] was over 100 µM, the TGI [23] was over 100 µM and the TGI [24] was over 100 µM. It also gave a TGI [25] of over 100 µM, a TGI [26] of 63.7 µM and a TGI [27] of over 100 µM. It also gave a TGI [58] of over 100 µM, a TGI [28] of over 100 µM and a TGI [30] of over 100 µM. It also gave a TGI [31] of over 100 µM, a TGI [32] of over 100 µM and a TGI [34] of over 100 µM. For the same compound, the TGI [35] was over 100 µM, the TGI [36] was 48.4 µM and the TGI [37] was over 100 µM. The TGI [38] was over 100 µM, the TGI [39] was over 100 µM and the TGI [40] was over 100 µM. For the same compound, the TGI [41] was over 100 µM, the TGI [43] was over 100 µM and the TGI [44] was over 100 µM. The TGI [45] was over 100 µM, the TGI [46] was over 100 µM and the TGI [47] was over 100 µM. For the same compound, the TGI [48] was over 100 µM, the TGI [49] was over 100 µM and the TGI [50] was over 100 µM. The TGI [51] was over 100 µM, the TGI [52] was over 100 µM and the TGI [59] was over 100 µM. It also gave a TGI [53] of 61.8 µM, a TGI [54] of over 100 µM and a TGI [56] of 84 µM. It also gave a TGI [57] of over 100 µM.
